Experimental data as given in US8426369B2, “Prevention and treatment of colon cancer” (Rutgers, The State University of New Jersey, priority 2006, dated 2013).

What was measured:
[1] = Body weight / overt toxicity during the ACF feeding study; type: in vivo; conditions: 40 ppm in diet
Procedure: Beginning at 5 weeks of age, all rats were fed the modified American Institute of Nutrition-76A (AIN-76A) diet. At 7 weeks of age, the animals were given s.c. injections of azoxymethane (AOM) (CAS no. 25843-45-2, Ash Stevens, Detroit, Mich.) once weekly for 2 weeks at a dose rate of 15 mg/kg body weight. One day after the second AOM injection, groups of animals (n=9 per group) were maintained on AIN-76A diet alone and AIN-76A diet containing 40 ppm pterostilbene. […] See, e.g., U.S. Application Publication No. US 2006-0057231 A1.
On the average, the animal consumed about 0.6 mg pterostilbene per day. All rats were weighed once weekly until termination of the study at 8 weeks after the second AOM treatment were sacrificed by CO2 asphyxiation. After laparotomy, the entire stomach, small intestine, and large intestine were resected. The organs were opened longitudinally, and the contents were flushed with normal saline.

phospho-STAT3 = experiment: Western blot of phospho-STAT3 in cytokine-treated HT-29 cells; type: cell-based, human
Procedure: (§1) The cell culture conditions and the reagents used in this example were described in Example 32. Whole cell extracts were collected after the various treatments and analyzed by western blotting. The protein samples were separated on 4-15% SDS-PAGE gels (Biorad, Hercules, Calif.) followed by transfer to a polyvinylidene fluoride membrane. The membranes were blocked with 5% milk in Tris buffer for 1 h and then incubated with the appropriate primary antibody solutions overnight at 4° C. The membranes were washed with Tris buffer, and incubated with horseradish peroxidase conjugated secondary antibody solutions for 1 h at room temperature.
(§2) The protein bands were visualized using a chemiluminescence based kit from Amersham Biosciences (Buckinghamshire, UK). The primary antibodies against iNOS, COX-2, IκBα, cyclin D1, c-myc (Santa Cruz Bio-technology, Santa Cruz, Calif.), phospho-STAT3, phospho-Erk1/2, phospho-JNK1/2, phospho-p38, phospho-Akt, phospho-ATF2, phospho-Elk1, PARP (Cell Signaling Technology Inc., Beverly, Mass.) and actin (Sigma, St. Louis, Mo.) and secondary antibodies (Santa Cruz Biotechnology, Santa Cruz, Calif.) were used for probing the abundance of the target protein in the samples.
The significance of the JAK-STAT pathway in HT-29 cells was evaluated by probing for phospho-STAT3. Cytokines activated the STAT pathway, as shown by a strong induction of phospho-STAT3.

ERK1/2 = experiment: Western blot of phosphorylated ERK1/2 in cytokine-treated HT-29 cells; type: cell-based, human
Procedure: as §1, §2

p-Akt = experiment: Western blot of p-Akt in cytokine-treated HT-29 cells; type: cell-based, human
Procedure: as §1, §2

p-JNK1/2 = experiment: Western blot of p-JNK1/2 in cytokine-treated HT-29 cells; type: cell-based, human
Procedure: as §1, §2

B16M-F10 melanoma cells = conditions: intravenous administration to mice; cited from earlier work
c-myc = experiment: Western blot of c-myc in HT-29 cells; type: cell-based, human; conditions: 9 h or 18 h, especially at 9 h
Procedure: (§3) The cells were incubated with different concentrations of pterostilbene for 1, 2 and 3 days, and cell proliferation was estimated by measuring [^3H]thymidine incorporated into DNA. […] In order to evaluate whether pterostilbene potentiates cell cycle arrest or apoptosis in HT-29 cells, the effect of pterostilbene on the proteins regulating the cell cycle and/or apoptosis pathways was examined. Cells treated with pterostilbene for 9 h or 18 h were harvested and protein samples were analyzed by Western blotting (FIG. 8B).
as §1
(§4) The protein bands were visualized using a chemiluminescence based kit from Amersham Biosciences (Buckinghamshire, UK). […]

COX-2 mRNA = experiment: Quantitative RT-PCR of cytokine-induced COX-2 mRNA in HT-29 cells; type: cell-based, human; conditions: 10 and 30 μM
Procedure: (§5) The cell culture conditions and the reagents used in this example were described in Example 32. The gene-mediated expression of iNOS and COX-2 are reported to be regulated at both the transcriptional and translational levels. In order to understand the effect of pterostilbene on cytokine-induced expression of proinflammatory enzymes and cytokines, RNA samples after treatment of HT-29 cells with cytokines and/or pterostilbene were analyzed by quantitative RT-PCR for the induction of mRNA levels of iNOS, COX-2, IL-1β, IFN-γ and TNF-α genes.
(§6) To determine the changes of mRNA levels by pterostilbene and cytokines, quantitative RT-PCR analysis was utilized, as described previously (Lee et al., Mol Pharmacol 2006; 69(6):1840-1848). Briefly, the cells were incubated with compounds for indicated period and the cells were then lysed using Trizol to extract RNA. RNA was reverse transcribed into cDNA using a high capacity cDNA archive kit (Applied Biosystems, Foster City, Calif.). The cDNA was used for quantitative PCR which was run on the ABI Prism […] sequence Detection System. The primers for the iNOS, COX-2, IFN-γ, TNF-α, IL-1β and GAPDH were obtained from Applied Biosystems (Foster City, Calif.).

p21 = experiment: Western blot of p21 in HT-29 cells; type: cell-based, human; conditions: HT-29, data not shown
Procedure: as §3, §1, §4

p-Smad3 = experiment: Activated Smad levels (p-Smad3) in HT-29 cells; type: cell-based, human; conditions: HT-29, data not shown
Source text: The significance of the transforming growth factor (TGF-β) pathway in down-regulating iNOS expression by pterostilbene was also investigated since TGF-β is a very potent inhibitor of iNOS and cytokines regulate Smad signaling of the TGF-β pathway. However, there was no effect of pterostilbene on activated Smad levels (p-Smad3) or in inducing TGF-β ligands (data not shown).

IL-1β mRNA = experiment: Quantitative RT-PCR of cytokine-induced IL-1β mRNA in HT-29 cells; type: cell-based, human; conditions: 10 and 30 μM
Procedure: as §5, §6

p65 subunit of NF-κB = experiment: Nuclear protein level of p65 subunit of NF-κB in HT-29 cells; type: cell-based, human; conditions: HT-29, data not shown
ATF2 = experiment: Western blot of cytokine-induced ATF2 phosphorylation in HT-29 cells; type: cell-based, human; conditions: cytokine-treated HT-29
Procedure: as §1
The protein bands were visualized using a chemiluminescence based kit from Amersham Biosciences (Buckinghamshire, UK). The primary antibodies against iNOS, COX-2, IκBα, cyclin D1, c-myc (Santa Cruz Bio-technology, Santa Cruz, Calif.), phospho-STAT3, phospho-Erk1/2, phospho-JNK1/2, phospho-p38, phospho-Akt, phospho-ATF2, phospho-Elk1, PARP (Cell Signaling Technology Inc., Beverly, Mass.) and actin (Sigma, St. Louis, Mo.) and secondary antibodies (Santa Cruz Biotechnology, Santa Cruz, Calif.) were used for probing the abundance of the target protein in the samples. […]

[2] = 25 mg pterostilbene/kg diet, hypercholesterolemic hamsters; cited from earlier work
[3] = system: carcinogen-induced preneoplastic lesions; conditions: MMOC model; cited from earlier work

COc1cc(/C=C/c2ccc(O)cc2)cc(OC)c1 [pterostilbene, (E)-4-(3,5-dimethoxystyryl)phenol]
overt toxicity [1]: did not cause any overt toxicity
body weights compared to control diet ([1]; throughout the study): comparable
level of induced phospho-STAT3 (phospho-STAT3): did not alter
ERK1/2 activation by cytokines (ERK1/2): did not block
level of p-Akt (p-Akt): did not change
p-JNK1/2 protein levels (p-JNK1/2): only a small effect
metastatic growth of B16M-F10 melanoma cells in the liver (B16M-F10 melanoma cells): inhibited metastatic growth
c-myc level (c-myc): effective in reducing
COX-2 mRNA induction by the cytokine mixture (COX-2 mRNA): strongly inhibited
induction of p21 (p21): no induction
activated Smad levels (p-Smad3) (p-Smad3): no effect
IL-1β mRNA induction by the cytokine mixture (IL-1β mRNA): strongly inhibited
nuclear protein levels of the p65 subunit of NF-κB (p65 subunit of NF-κB): remained high and unaltered
cytokine-induced activation (phosphorylation) of ATF2 (ATF2): effective in inhibiting
plasma cholesterol and lipoproteins [2]: lowered plasma cholesterol and lipoproteins
preventing carcinogen-induced preneoplastic lesions [3]: as effective as resveratrol
